pIC50: −log10 of the molar value.
Molecular target: human GPR17 short isoform (Homo sapiens, UniProt Q13304)
Assay: GPR17 cAMP assay (TR-FRET cAMP quantification, antagonist mode)
Assay type: cell-based
Conditions: CHO-K1 cells stably expressing human GPR17 short isoform; EC80 of agonist MDL29,951; forskolin 15µM; IBMX 0.5mM; 30 minutes at room temperature; read-out: hGPR17 cAMP IC50
Protocol: GPR17 cAMP Assay Protocol:
CHO-K1 cells stably expressing vector containing untagged human GPR17 short isoform (Roche) were cultured at 37°C / 5% CO2 in DMEM (Dulbecco's Modified Eagle Medium):F-12 (1:1) supplemented with 10% foetal bovine serum and 400 µg/ml Geneticin.
Changes in intracellular cyclic adenosine monophosphate (cAMP) levels were quantified using the Nano-TRF Detection Assay kit (Roche Diagnostics, Cat. No. 05214386001). This assay allows for direct cAMP quantification in a homogeneous solution. cAMP is detected based on time-resolved fluorescence energy transfer (TR-FRET) and competitive binding of ruthenylated cAMP and endogenous cAMP to an anti-cAMP monoclonal antibody labeled with AlexaFluor-700. The Ruthenium complex serves as the FRET donor and transfers energy to AlexaFluor-700. The FRET signal is inversely proportional to the cAMP concentration.
CHO-GPR17S cells were detached with Accutase and resuspended in assay buffer consisting of Hank's Balanced Salt Solution (HBSS), 10mM HEPES (4-(2-hydroxyethyl) piperazine-1-ethanesulfonic acid solution) and 0.1% bovine serum albumin (pH 7.4). The cells were seeded in black 384-well plates (Corning) at a density of 10'000 cells / 20µl assay buffer until the addition of compounds.
Test antagonist compounds were serially diluted in dimethyl sulfoxide (DMSO) and spotted in 384-well plates. The compounds were then diluted in HBSS buffer supplemented with an EC80 concentration of MDL29,951 (3-(2-Carboxy-4,6-dichloroindol-3-yl)propionic acid) (GPR17 agonist) plus 3-Isobutyl-1-methylxanthine (IBMX) (0.5mM final concentration) and added to the cells at room temperature. Forskolin (15µM final concentration) was added 5 minutes after the test compounds and the cells were incubated at room temperature for 30 minutes. The assay was stopped by adding cAMP detection mix (containing detergents for cell lysis) for 90 minutes at room temperature.
Cellular cAMP was measured using a Paradigm reader (Molecular Devices). The raw data was used to calculate the FRET signal based on the assay's P-factor as per cAMP kit instructions. The data was normalized to the maximal activity of a reference antagonist and dose response curves were fitted to the percent activity of the test compounds using a sigmoidal dose response model (Genedata Screener).
Results in the hGPR17 cAMP assay are provided for compounds of formula I in Table 1 Table 1: […]

Sequence of human GPR17 short isoform (Q13304 29-367): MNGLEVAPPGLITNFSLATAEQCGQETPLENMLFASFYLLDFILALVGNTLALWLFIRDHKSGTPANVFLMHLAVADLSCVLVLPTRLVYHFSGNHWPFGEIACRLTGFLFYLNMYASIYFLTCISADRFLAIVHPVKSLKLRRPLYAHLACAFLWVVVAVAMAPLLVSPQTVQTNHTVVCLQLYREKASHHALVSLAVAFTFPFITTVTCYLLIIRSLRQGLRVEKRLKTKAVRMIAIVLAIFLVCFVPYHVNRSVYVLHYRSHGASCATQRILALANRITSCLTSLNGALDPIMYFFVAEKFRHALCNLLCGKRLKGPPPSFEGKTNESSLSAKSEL

| SMILES | pIC50 |
| --- | --- |
| COc1nc(NS(=O)(=O)c2c[nH]c3c(-c4cnccn4)c(C)ccc23)nc(OC)c1OCC(F)F [Example 58, N-[5-(2,2-difluoroethoxy)-4,6-dimethoxy-pyrimidin-2-yl]-6-methyl-7-pyrazin-2-yl-1H-indole-3-sulfonamide] | 7.29 |
| COc1nc(NS(=O)(=O)c2c[nH]c3c(-c4cnccn4)c(C)ccc23)nc(OC)c1OC(F)F [Example 59, N-[5-(difluoromethoxy)-4,6-dimethoxy-pyrimidin-2-yl]-6-methyl-7-pyrazin-2-yl-1H-indole-3-sulfonamide] | 7.17 |
| COc1nc(NS(=O)(=O)c2c[nH]c3c(-c4ncccn4)c(Cl)c(F)cc23)nc(OC)c1OCC(F)F [Example 60, 6-chloro-N-[5-(2,2-difluoroethoxy)-4,6-dimethoxy-pyrimidin-2-yl]-5-fluoro-7-(2-pyrimidyl)-1H-indole-3-sulfonamide] | 6.92 |
| COc1nc(NS(=O)(=O)c2c[nH]c3c(-c4ccn(C)n4)c(Cl)ccc23)nc(OC)c1OCC(F)F [Example 61, 6-chloro-N-[5-(2,2-difluoroethoxy)-4,6-dimethoxy-pyrimidin-2-yl]-7-(1-methylpyrazol-3-yl)-1H-indole-3-sulfonamide] | 7.64 |
| COc1nc(NS(=O)(=O)c2c[nH]c3c(-c4ccnc(C)n4)c(Cl)ccc23)nc(OC)c1OCC(F)F [Example 62, 6-chloro-N-[5-(2,2-difluoroethoxy)-4,6-dimethoxy-pyrimidin-2-yl]-7-(2-methylpyrimidin-4-yl)-1H-indole-3-sulfonamide] | 7.43 |
| COc1nc(NS(=O)(=O)c2c[nH]c3c(-c4ccc(C)nn4)c(Cl)ccc23)nc(OC)c1OCC(F)F [Example 63, 6-chloro-N-[5-(2,2-difluoroethoxy)-4,6-dimethoxy-pyrimidin-2-yl]-7-(6-methylpyridazin-3-yl)-1H-indole-3-sulfonamidemide] | 7.35 |
| COc1nc(NS(=O)(=O)c2c[nH]c3c(-c4nccnc4Cl)c(Cl)ccc23)nc(OC)c1OC(F)F [Example 64, 6-chloro-7-(3-chloropyrazin-2-yl)-N-[5-(difluoromethoxy)-4,6-dimethoxy-pyrimidin-2-yl]-1H-indole-3-sulfonamide] | 7.46 |
| COc1nc(NS(=O)(=O)c2c[nH]c3c(-c4nccnc4Cl)c(Cl)ccc23)nc(OC)c1CC(F)F [Example 65, 6-chloro-7-(3-chloropyrazin-2-yl)-N-[5-(2,2-difluoroethyl)-4,6-dimethoxy-pyrimidin-2-yl]-1H-indole-3-sulfonamide] | 7.41 |
| COc1nc(NS(=O)(=O)c2c[nH]c3c(-c4nccnc4Cl)c(Cl)ccc23)nc(OC)c1OCC(F)F [Example 66, 6-chloro-7-(3-chloropyrazin-2-yl)-N-[5-(2,2-difluoroethoxy)-4,6-dimethoxy-pyrimidin-2-yl]-1H-indole-3-sulfonamide] | 7.26 |
| COc1nc(NS(=O)(=O)c2c[nH]c3c(-c4ccn(C)n4)c(Cl)ccc23)nc(OC)c1OC(F)F [Example 67, 6-chloro-N-[5-(difluoromethoxy)-4,6-dimethoxy-pyrimidin-2-yl]-7-(1-methylpyrazol-3-yl)-1H-indole-3-sulfonamide] | 7.62 |
| COc1nc(NS(=O)(=O)c2c[nH]c3c(-c4ccn(C)n4)c(Cl)ccc23)nc(OC)c1OCCF [Example 68, 6-chloro-N-[5-(2-fluoroethoxy)-4,6-dimethoxy-pyrimidin-2-yl]-7-(1-methylpyrazol-3-yl)-1H-indole-3-sulfonamide] | 7.74 |
| COc1nc(NS(=O)(=O)c2c[nH]c3c(-c4cnn(C)c4)c(Br)ccc23)nc(OC)c1OCC(F)F [Example 69, 6-bromo-N-[5-(2,2-difluoroethoxy)-4,6-dimethoxy-pyrimidin-2-yl]-7-(1-methylpyrazol-4-yl)-1H-indole-3-sulfonamide] | 7.25 |
| COc1nc(NS(=O)(=O)c2c[nH]c3c(-c4ccccc4)c(Cl)ccc23)nc(OC)c1OCC(F)F [Example 70, 6-chloro-N-[5-(2,2-difluoroethoxy)-4,6-dimethoxy-pyrimidin-2-yl]-7-phenyl-1H-indole-3-sulfonamide] | 6.99 |
| COc1nc(NS(=O)(=O)c2c[nH]c3c(-c4ccccc4)c(Cl)ccc23)nc(OC)c1CC(F)F [Example 71, 6-chloro-N-[5-(2,2-difluoroethyl)-4,6-dimethoxy-pyrimidin-2-yl]-7-phenyl-1H-indole-3-sulfonamide] | 7.00 |
| COc1nc(NS(=O)(=O)c2c[nH]c3c(-c4ncccn4)cccc23)nc(OC)c1OCC(F)F [Example 72, N-[5-(2,2-difluoroethoxy)-4,6-dimethoxy-pyrimidin-2-yl]-7-(2-pyrimidyl)-1H-indole-3-sulfonamide] | 5.85 |
| COc1nc(NS(=O)(=O)c2c[nH]c3c(-c4nccnc4C)c(Cl)ccc23)nc(OC)c1OCC(F)F [Example 73, 6-chloro-N-[5-(2,2-difluoroethoxy)-4,6-dimethoxy-pyrimidin-2-yl]-7-(3-methylpyrazin-2-yl)-1H-indole-3-sulfonamide] | 7.43 |
| COc1nc(NS(=O)(=O)c2c[nH]c3c(-c4nccnc4C)c(Cl)ccc23)nc(OC)c1CC(F)F [Example 74, 6-chloro-N-[5-(2,2-difluoroethyl)-4,6-dimethoxy-pyrimidin-2-yl]-7-(3-methylpyrazin-2-yl)-1H-indole-3-sulfonamide] | 7.72 |
| COc1nc(NS(=O)(=O)c2c[nH]c3c(-c4ncccn4)c(Cl)ccc23)nc(OC)c1Br [Example 75, N-(5-bromo-4,6-dimethoxy-pyrimidin-2-yl)-6-chloro-7-(2-pyrimidyl)-1H-indole-3-sulfonamide] | 6.87 |
| COc1nc(NS(=O)(=O)c2c[nH]c3c(-c4ccncn4)c(Cl)ccc23)nc(OC)c1CC(F)F [Example 76, 6-chloro-N-[5-(2,2-difluoroethyl)-4,6-dimethoxy-pyrimidin-2-yl]-7-(4-pyrimidyl)-1H-indole-3-sulfonamide] | 7.68 |
| COc1nc(NS(=O)(=O)c2c[nH]c3c(-c4ccncn4)c(Cl)ccc23)nc(OC)c1OCC(F)F [Example 77, 6-chloro-N-[5-(2,2-difluoroethoxy)-4,6-dimethoxy-pyrimidin-2-yl]-7-(4-pyrimidyl)-1H-indole-3-sulfonamide] | 7.62 |
| COc1nc(NS(=O)(=O)c2c[nH]c3c(-c4ncccn4)c(Cl)ccc23)nc(OC)c1OCC#N [Example 78, 6-chloro-N-[5-(cyanomethoxy)-4,6-dimethoxy-pyrimidin-2-yl]-7-(2-pyrimidyl)-1H-indole-3-sulfonamide] | 6.91 |
| COc1nc(NS(=O)(=O)c2c[nH]c3c(-c4ncccn4)c(Cl)ccc23)nc(OC)c1CCC#N [Example 79, 6-chloro-N-[5-(2-cyanoethyl)-4,6-dimethoxy-pyrimidin-2-yl]-7-(2-pyrimidyl)-1H-indole-3-sulfonamide] | 7.23 |
| COc1nc(NS(=O)(=O)c2c[nH]c3c(-c4ncccn4)c(Cl)ccc23)ncc1OCCF [Example 80, 6-chloro-N-[5-(2-fluoroethoxy)-4-methoxy-pyrimidin-2-yl]-7-(2-pyrimidyl)-1H-indole-3-sulfonamide] | 6.59 |
| COc1nc(NS(=O)(=O)c2c[nH]c3c(-c4nccnc4C)c(Cl)ccc23)nc(OC)c1OC(F)F [Example 81, 6-chloro-N-[5-(difluoromethoxy)-4,6-dimethoxy-pyrimidin-2-yl]-7-(3-methylpyrazin-2-yl)-1H-indole-3-sulfonamide] | 7.51 |
| COc1nc(NS(=O)(=O)c2c[nH]c3c(-c4cnc(C)cn4)c(Cl)ccc23)nc(OC)c1CC(F)F [Example 82, 6-chloro-N-[5-(2,2-difluoroethyl)-4,6-dimethoxy-pyrimidin-2-yl]-7-(5-methylpyrazin-2-yl)-1H-indole-3-sulfonamide] | 7.33 |
| COc1nc(NS(=O)(=O)c2c[nH]c3c(-c4cnc(C)cn4)c(Cl)ccc23)nc(OC)c1OC(F)F [Example 83, 6-chloro-N-[5-(difluoromethoxy)-4,6-dimethoxy-pyrimidin-2-yl]-7-(5-methylpyrazin-2-yl)-1H-indole-3-sulfonamide] | 7.01 |
| COc1nc(NS(=O)(=O)c2c[nH]c3c(-c4cnc(C)cn4)c(Cl)ccc23)nc(OC)c1OCC(F)F [Example 84, 6-chloro-N-[5-(2,2-difluoroethoxy)-4,6-dimethoxy-pyrimidin-2-yl]-7-(5-methylpyrazin-2-yl)-1H-indole-3-sulfonamide] | 7.28 |
| COc1nc(NS(=O)(=O)c2c[nH]c3c(-c4ncccn4)c(Cl)ccc23)nc(OC)c1C [Example 85, 6-chloro-N-(4,6-dimethoxy-5-methyl-pyrimidin-2-yl)-7-(2-pyrimidyl)-1H-indole-3-sulfonamide] | 7.36 |
